Tested on: skin
Assay: Affymetrix microarray of skin, DBP-4 hr and analogs vs. untreated; gene selection by log-2 fold change, Wilcoxon, Kendall tau (Tables 8, 9)
Type: in vivo, mouse

CCCCOC(=O)c1ccccc1C(=O)OCCCC [DBP, dibutylphthalate]
No: Wilcoxon: Pigp (gene Pigp, NM_019543_at, DBP-4 hr vs. untreated) | Wilcoxon: Pkp4 (gene Pkp4, NM_026361_at, DBP-4 hr vs. untreated) | Wilcoxon: Plk3 (gene Plk3, NM_013807_at, DBP-4 hr vs. untreated) | Wilcoxon: Polr2g (gene Polr2g, NM_026329_at, DBP-4 hr vs. untreated) | Wilcoxon: Pparg (gene Pparg, NM_011146_at, DBP-4 hr vs. untreated) | Wilcoxon: Ppp1r7 (gene Ppp1r7, NM_023200_at, DBP-4 hr vs. untreated) | Wilcoxon: Prokr1 (gene Prokr1, NM_021381_at, DBP-4 hr vs. untreated) | Wilcoxon: Ptpn1 (gene Ptpn1, NM_011201_at, DBP-4 hr vs. untreated) | Wilcoxon: Rabgef1 (gene Rabgef1, NM_019983_at, DBP-4 hr vs. untreated) | Wilcoxon: Rai12 (gene Rai12, NM_018740_at, DBP-4 hr vs. untreated) | Wilcoxon: Rbbp6 (gene Rbbp6, NM_011247_at, DBP-4 hr vs. untreated) | Wilcoxon: Rpl7l1 (gene Rpl7l1, NM_025433_at, DBP-4 hr vs. untreated) | Wilcoxon: Sema4d (gene Sema4d, NM_013660_at, DBP-4 hr vs. untreated) | Wilcoxon: Siae (gene Siae, NM_011734_at, DBP-4 hr vs. untreated) | Wilcoxon: Sirt1 (gene Sirt1, NM_019812_at, DBP-4 hr vs. untreated) | Wilcoxon: Slc9a3r1 (gene Slc9a3r1, NM_012030_at, DBP-4 hr vs. untreated) | Wilcoxon: Slc30a4 (gene Slc30a4, NM_011774_at, DBP-4 hr vs. untreated) | Wilcoxon: Slc35a1 (gene Slc35a1, NM_011895_at, DBP-4 hr vs. untreated) | Wilcoxon: Smarcb1 (gene Smarcb1, NM_011418_at, DBP-4 hr vs. untreated) | Wilcoxon: Srsf6 (gene Srsf6, NM_026499_at, DBP-4 hr vs. untreated) | Wilcoxon: Stx17 (gene Stx17, NM_026343_at, DBP-4 hr vs. untreated) | Wilcoxon: Tmed1 (gene Tmed1, NM_010744_at, DBP-4 hr vs. untreated) | Wilcoxon: Tmem208 (gene Tmem208, NM_025486_at, DBP-4 hr vs. untreated) | Wilcoxon: Tnfrsf1a (gene Tnfrsf1a, NM_011609_at, DBP-4 hr vs. untreated) | Wilcoxon: Tnfrsf9 (gene Tnfrsf9, NM_011612_at, DBP-4 hr vs. untreated) | Wilcoxon: Trappc2l (gene Trappc2l, NM_021502_at, DBP-4 hr vs. untreated) | Wilcoxon: Tril (gene Tril, NM_025817_at, DBP-4 hr vs. untreated) | Wilcoxon: Trim12a (gene Trim12a, NM_023835_at, DBP-4 hr vs. untreated) | Wilcoxon: Trip4 (gene Trip4, NM_019797_at, DBP-4 hr vs. untreated) | Wilcoxon: Trp63 (gene Trp63, NM_011641_at, DBP-4 hr vs. untreated) | Wilcoxon: Trpv2 (gene Trpv2, NM_011706_at, DBP-4 hr vs. untreated) | Wilcoxon: Tsn (gene Tsn, NM_011650_at, DBP-4 hr vs. untreated) | Wilcoxon: Ufc1 (gene Ufc1, NM_025388_at, DBP-4 hr vs. untreated) | Wilcoxon: Ulk2 (gene Ulk2, NM_013881_at, DBP-4 hr vs. untreated) | Wilcoxon: Wbp1 (gene Wbp1, NM_016757_at, DBP-4 hr vs. untreated) | Wilcoxon: Zfp68 (gene Zfp68, NM_013844_at, DBP-4 hr vs. untreated) | Wilcoxon: Zfp90 (gene Zfp90, NM_011764_at, DBP-4 hr vs. untreated) | Wilcoxon: Zkscan3 (gene Zkscan3, NM_023685_at, DBP-4 hr vs. untreated) | Wilcoxon: Zkscan6 (gene Zkscan6, NM_026107_at, DBP-4 hr vs. untreated) | 1110032A04Rik NM_133675_at ≧2-Fold change (mouse, in vivo) | 2510002D24Rik NM_001033164_at ≧2-Fold change (mouse, in vivo) | 2510009E07Rik NM_001001881_at ≧2-Fold change (mouse, in vivo) | 2610528A11Rik XR_105647_at ≧2-Fold change (mouse, in vivo) | 1500015010Rik NM_024283_at ≧2-Fold change (mouse, in vivo) | 3110079015Rik NM_028473_at ≧2-Fold change (mouse, in vivo) | A2m NM_175628_at ≧2-Fold change (mouse, in vivo)
Yes: Kendall: Pigp (gene Pigp, NM_019543_at, gene expression vs. output) | Kendall: Pkp4 (gene Pkp4, NM_026361_at, gene expression vs. output) | Kendall: Plk3 (gene Plk3, NM_013807_at, gene expression vs. output) | Kendall: Polr2g (gene Polr2g, NM_026329_at, gene expression vs. output) | Kendall: Pparg (gene Pparg, NM_011146_at, gene expression vs. output) | Kendall: Ppp1r7 (gene Ppp1r7, NM_023200_at, gene expression vs. output) | Kendall: Prokr1 (gene Prokr1, NM_021381_at, gene expression vs. output) | Kendall: Ptpn1 (gene Ptpn1, NM_011201_at, gene expression vs. output) | Kendall: Rabgef1 (gene Rabgef1, NM_019983_at, gene expression vs. output) | Kendall: Rai12 (gene Rai12, NM_018740_at, gene expression vs. output) | Kendall: Rbbp6 (gene Rbbp6, NM_011247_at, gene expression vs. output) | Kendall: Rpl7l1 (gene Rpl7l1, NM_025433_at, gene expression vs. output) | Kendall: Sema4d (gene Sema4d, NM_013660_at, gene expression vs. output) | Kendall: Siae (gene Siae, NM_011734_at, gene expression vs. output) | Kendall: Sirt1 (gene Sirt1, NM_019812_at, gene expression vs. output) | Kendall: Slc9a3r1 (gene Slc9a3r1, NM_012030_at, gene expression vs. output) | Kendall: Slc30a4 (gene Slc30a4, NM_011774_at, gene expression vs. output) | Kendall: Slc35a1 (gene Slc35a1, NM_011895_at, gene expression vs. output) | Kendall: Smarcb1 (gene Smarcb1, NM_011418_at, gene expression vs. output) | Kendall: Srsf6 (gene Srsf6, NM_026499_at, gene expression vs. output) | Kendall: Stx17 (gene Stx17, NM_026343_at, gene expression vs. output) | Kendall: Tmed1 (gene Tmed1, NM_010744_at, gene expression vs. output) | Kendall: Tmem208 (gene Tmem208, NM_025486_at, gene expression vs. output) | Kendall: Tnfrsf1a (gene Tnfrsf1a, NM_011609_at, gene expression vs. output) | Kendall: Tnfrsf9 (gene Tnfrsf9, NM_011612_at, gene expression vs. output) | Kendall: Trappc2l (gene Trappc2l, NM_021502_at, gene expression vs. output) | Kendall: Tril (gene Tril, NM_025817_at, gene expression vs. output) | Kendall: Trim12a (gene Trim12a, NM_023835_at, gene expression vs. output) | Kendall: Trip4 (gene Trip4, NM_019797_at, gene expression vs. output) | Kendall: Trp63 (gene Trp63, NM_011641_at, gene expression vs. output) | Kendall: Trpv2 (gene Trpv2, NM_011706_at, gene expression vs. output) | Kendall: Tsn (gene Tsn, NM_011650_at, gene expression vs. output) | Kendall: Ufc1 (gene Ufc1, NM_025388_at, gene expression vs. output) | Kendall: Ulk2 (gene Ulk2, NM_013881_at, gene expression vs. output) | Kendall: Wbp1 (gene Wbp1, NM_016757_at, gene expression vs. output) | Kendall: Zfp68 (gene Zfp68, NM_013844_at, gene expression vs. output) | Kendall: Zfp90 (gene Zfp90, NM_011764_at, gene expression vs. output) | Kendall: Zkscan3 (gene Zkscan3, NM_023685_at, gene expression vs. output) | Kendall: Zkscan6 (gene Zkscan6, NM_026107_at, gene expression vs. output) | 1600029D21Rik (NM_029639_at) ≧2-Fold change (mouse, in vivo) | 2010002N04Rik (NM_134133_at) ≧2-Fold change (mouse, in vivo) | 2310016C08Rik (NM_023516_at) ≧2-Fold change (mouse, in vivo) | 1810011010Rik (NM_026931_at) ≧2-Fold change (mouse, in vivo)
